{"source": "patent US9668984B2", "about": "“Use of compounds to inhibit 5 α-reductase enzyme activity, and pharmaceutical and cosmetic compostions containing them” (GIULIANI S.P.A., priority 2008, dated 2017)", "key": {"5α-reductase": {"tested_on": "5α-reductase", "assay": "Modulation of 5α-reductase activity (testosterone to DHT conversion, ELISA) in mouse fibroblasts after 48 hours of treatment", "type": "cell-based", "details": "for % inhibition of 5α-reductase / Total DHT ng (±SE) / Inhibition of 5α-reductase activity in vitro (result in words): 0.1 mg/ml, 48 hours; for % inhibition of 5α-reductase / Total DHT ng (±SE): pre-incubation for 24 hours with testosterone 10 ng/ml; for % inhibition of 5α-reductase: confidence interval; for Total DHT ng (±SE): final table; for Testosterone, cell extract / Testosterone, supernatant / DHT, cell extract / DHT, supernatant / Final DHT, cell extract / Final DHT, supernatant / Total DHT produced: sample 100 μg/ml; for Testosterone, cell extract / Testosterone, supernatant / DHT, cell extract / DHT, supernatant: 48 h; for Testosterone, cell extract: Balb/c-3T3; for Testosterone, supernatant: Balb/c-3T3 pre-incubated 24 h with testosterone 10 ng/ml; for DHT, cell extract / DHT, supernatant: uncorrected measured DHT; for Final DHT, cell extract: corrected for testosterone crosslinking; for Final DHT, supernatant: measured DHT minus bovine serum DHT minus testosterone crosslinking; for Total DHT produced: per flask (supernatant 10 ml + cell extract 0.5 ml); for Inhibition of 5α-reductase activity in vitro (result in words): mouse fibroblasts Balb/c-3T3, versus untreated control", "experimental": "Assessment of the modulation of 5α-reductase activity after treatment for 48 hours with the above-stated compounds in a cell line of mouse fibroblasts.\nFor this test, the fibroblasts were pretreated with testosterone to increase the basal production of 5α-reductase, then they were treated with the above-mentioned compounds for 48 hours.\nAt the end of the treatment, the conversion of testosterone into DHT was measured in the treated and untreated cell cultures, using a two-way ELISA. This procedure enables an estimation of the percentage inhibition or stimulation of the specific activity of 5α-reductase.\nAs a positive control, we used a titrated extract of Serenoa repens (saw palmetto), a plant known in the pharmacopoeia for its capacity to inhibit 5α-reductase and recommended for said purpose in the treatment of prostatic hyperplasia in males.\nThe cell model used for the in vitro test consisted of mouse fibroblasts Balb/c-3T3. This cell line derives from fibroblasts of […] mouse embryos.\nThe samples of the above-described compounds were solubilised as follows: • 2,4,6-octatrien-1-ol: 1 mg/ml in absolute ethanol • alternative Boehmeria: 5 mg/ml in growth medium+5% DMSO • traditional Boehmeria: 2.5 mg/ml in growth medium+5% DMSO • Ajuga reptans extract: 5 mg/ml in growth medium+5% DMSO • Finasteride: 5 mg/ml in absolute ethanol • Serenoa repens: 10 μl/ml in absolute ethanol Treatment and Exposure Pre-Incubation\nThe cells were seeded in 25 cm^2 flasks (T25) in DMEM (Dulbecco's […]) with the addition of 10% FBS (foetal bovine serum). As soon as confluence was achieved, the cultures were treated for 24 hours with 10 ng/ml of testosterone.\nAfter the pre-incubation phase, the cell cultures were treated with said samples at the final concentration of 0.1 mg/ml. The Serenoa repens extract at 0.1 mg/ml was used as a positive control, while the negative control consisted in plates treated with the solvent. Exposure was protracted for 48 hours in the incubator at 37° C., 5% CO2, renewing the medium every 24 hours. Each sample was tested in duplicate.\nAt the end of the experiment, a cell count was conducted to assess any cytotoxic effects. The of DHT and testosterone content was measured using immunodiagnostic tests (ELISA) in the extracellular (conditioned growth media) and in the intracellular (cell extracts) compartments.\nAt the end of the experiment, the growth medium was collected from each flask and a cell extract was prepared.\nThis was done in four stages: • trypsinisation of the cell layer in situ in the flask • centrifugation and collection of the cells in pellets • extraction with Triton X-100 (1% in basal medium) • ultrasonication for 30 minutes. DHT and Testosterone Measurement\nThe two hormones, DHT and testosterone, were measured both in the supernatant (extracellular DHT/testosterone) and in the cell extracts (intracellular DHT/testosterone).\nIt is therefore of fundamental importance to determine the quantity of testosterone remaining at the end of the test in order to distinguish it from the newly-synthesised DHT. Moreover, the presence of DHT in foetal bovine serum (FBS), the main component in the growth medium, represents a source of exogenous DHT that must be taken into account in calculating the DHT actually produced by the cells starting from the testosterone.\nThe method involves the composition of a standard curve, calculated in an appropriate range of concentrations, and uses specific antibodies immobilised on a solid substrate directed against DHT/testosterone, and a reagent that competes for binding to the antibody."}, "androgenetic alopecia": {"tested_on": "androgenetic alopecia", "assay": "Clinical pilot study, Group 1: androgenetic alopecia, topical administration on the scalp", "type": "in vivo, human", "experimental": "(§1) A clinical pilot study was also conducted to assess the efficacy of a composition according to the invention in the treatment of male and female androgenetic alopecia and alopecia greata.\n(§2) In the composition according to the invention forming the object of this clinical study, said active principle was a salt, and a potassium salt in particular, of 2,4,6-octatrienoic acid, formulated for topical administration on the scalp, in a single daily dose.\nThirty individuals of both genders were recruited (15 males and 15 females) aged between 18 and 55 years, suffering from androgenetic alopecia (grades I-III according to the Hamilton scale for men, and I-II according to the Ludwig scale for women). Since this was a pilot study, an open trial was conducted, administering the composition of the invention.\nExclusion criteria from the study were as follows: • concomitant hormonal and/or pharmacological therapies; • pregnancy and breast-feeding; • systemic hormonal, metabolic and autoimmune diseases; • specific trichological treatments in the previous three months; • concomitant inflammatory diseases of the scalp, e.g. seborrhoeic dermatitis, irritative or allergic dermatitis.\nThe clinical and dermoscopic assessment of the individuals to treat focused on: hair shaft diameter, presence of a perifollicular halo, evaluation of the anagen phase by epiluminescence study of the bulb.\nAfter the baseline assessment at T0, before starting the treatment, two evaluations after the treatment were conducted, one at T1 after 1 month, and one at T2 after 3 months.\nAt each follow-up assessment, a clinical evaluation was performed using epiluminescence to establish the hair shaft diameter in a previously-established and marked area (MoleMax II, Dermal Instruments Italia)."}, "alopecia greata": {"tested_on": "alopecia greata", "assay": "Clinical pilot study, group with alopecia greata (area celsi), topical administration on the scalp", "type": "in vivo, human", "experimental": "as §1, §2\nAlopecia greata (also called area celsi) is a disease involving sudden hair loss typically giving rise to bald patches (or areas).\nA significant characteristic of the evolutional stages of alopecia greata is the presence of “exclamation mark” hairs, so called because they appear tapered towards the base.\nFor the group of individuals treated, the pilot study only enabled us to identify a trend (clinical improvement, stability, worsening) within the short time span considered, i.e. from the baseline T0 before starting the treatment up to T2 after three months of treatment, based on the following parameters: • hair loss • progression of bald patches on the scalp • presence of exclamation mark hairs Results"}, "[1]": {"tested_on": "transplanted hair follicles", "assay": "Further clinical study: topical scalp treatment around hair transplantation", "type": "in vivo, human", "details": "once a day from 15 days before to 90 days after the transplant"}, "[2]": {"details": "T2 after 3 months, mean at T0 0.4 mm"}, "[3]": {"details": "T2 after 3 months, mean at T0 56%"}, "[4]": {"details": "single daily topical dose, epiluminescence, follow-up to T2 (3 months)"}, "[5]": {"details": "T0 to T2 (three months of treatment)"}}, "note": "Marks after values point to notes of the source that are not given here.", "data": [{"compound": "C/C=C/C=C/C=C/CO", "note": "[2,4,6-octatrien-1-ol, 2E,4E,6E-Octatrien-1-ol]", "values": [{"measurement": "% inhibition of 5α-reductase", "setting": "5α-reductase", "value": "27-43%"}, {"measurement": "Total DHT ng (±SE)", "setting": "5α-reductase", "value": "2.3 (±0.1) ng"}, {"measurement": "Testosterone, cell extract", "setting": "5α-reductase", "value": 1, "unit": "ng/mL"}, {"measurement": "Testosterone, supernatant", "setting": "5α-reductase", "value": 1.25, "unit": "ng/mL"}, {"measurement": "DHT, cell extract", "setting": "5α-reductase", "value": 450, "unit": "pg/mL"}, {"measurement": "DHT, supernatant", "setting": "5α-reductase", "value": 425, "unit": "pg/mL"}, {"measurement": "Final DHT, cell extract", "setting": "5α-reductase", "value": 363, "unit": "pg/mL"}, {"measurement": "Final DHT, supernatant", "setting": "5α-reductase", "value": 216, "unit": "pg/mL"}, {"measurement": "Total DHT produced", "setting": "5α-reductase", "value": 2.34, "unit": "ng"}]}, {"compound": "CC=CC=CC=CC(=O)[O-].[K+]", "note": "[potassium salt of 2,4,6-octatrienoic acid]", "values": [{"measurement": "Individuals treated with androgenetic alopecia parameters modified in a globally positive manner", "setting": "androgenetic alopecia; 3 months topical treatment", "value": 83, "unit": "%"}, {"measurement": "Hair shaft diameter at T2, Group A)", "setting": "androgenetic alopecia; [2]", "value": 0.7, "unit": "mm"}, {"measurement": "Hair shaft diameter at T2, Group B)", "setting": "androgenetic alopecia; [2]", "value": 0.6, "unit": "mm"}, {"measurement": "Hair shaft diameter at T2, Group C)", "setting": "androgenetic alopecia; [2]", "value": 0.4, "unit": "mm"}, {"measurement": "Percentage of bulbs in the anagen phase at T2, Group A)", "setting": "androgenetic alopecia; [3]", "value": 83, "unit": "%"}, {"measurement": "Percentage of bulbs in the anagen phase at T2, Group B)", "setting": "androgenetic alopecia; [3]", "value": 74, "unit": "%"}, {"measurement": "Percentage of bulbs in the anagen phase at T2, Group C)", "setting": "androgenetic alopecia; [3]", "value": 61, "unit": "%"}, {"measurement": "Side effects after using the product", "setting": "androgenetic alopecia; androgenetic alopecia group", "value": "None of the individuals showed any side effects"}, {"measurement": "Cases with increase in hair shaft diameter judged highly significant (A)", "setting": "androgenetic alopecia; [4]", "value": 62, "unit": "%"}, {"measurement": "Cases with increase in hair shaft diameter judged not significant (C)", "setting": "androgenetic alopecia; [4]", "value": 17, "unit": "%"}, {"measurement": "Cases with increase in hair shaft diameter judged significant (B)", "setting": "androgenetic alopecia; [4]", "value": 21, "unit": "%"}, {"measurement": "Individuals in whom defluvium of hair in the affected areas diminished", "setting": "alopecia greata; [5]", "value": 55, "unit": "%"}, {"measurement": "Individuals with stabilisation of the bald patches", "setting": "alopecia greata; [5]", "value": 15, "unit": "%"}, {"measurement": "Individuals with stoppage in the progression and slight reduction in the extent of the bald patches", "setting": "alopecia greata; [5]", "value": 43, "unit": "%"}, {"measurement": "Number of exclamation mark hairs at T2, individuals with stabilisation or slight improvement in bald patches", "setting": "alopecia greata; T2, mean 82% at T0", "value": 46, "unit": "%"}, {"measurement": "Number of exclamation mark hairs at T2, individuals with worsening bald patches", "setting": "alopecia greata; T2, mean 83% at T0", "value": 82, "unit": "%"}, {"measurement": "Side effects after using the product", "setting": "alopecia greata; alopecia greata group", "value": "None of the individuals revealed any side effects"}, {"measurement": "Individuals treated with global trend towards an improvement (clinical improvement and stabilisation of the bald patches)", "setting": "alopecia greata; three months of treatment", "value": 58, "unit": "%"}]}, {"compound": "CC(C)(C)NC(=O)[C@H]1CC[C@H]2[C@@H]3CC[C@H]4NC(=O)C=C[C@]4(C)[C@H]3CC[C@]12C", "note": "[Finasteride]", "values": [{"measurement": "Inhibition of 5α-reductase activity in vitro (result in words)", "setting": "5α-reductase", "value": "no significant inhibitory effect"}, {"measurement": "Inhibition of 5α-reductase activity in vitro (result in words)", "setting": "5α-reductase; listed as finasteride", "value": "no real inhibitory effect"}, {"measurement": "% inhibition of 5α-reductase", "setting": "5α-reductase", "value": "0-15* %"}, {"measurement": "Total DHT ng (±SE)", "setting": "5α-reductase", "value": "3.6 (±0.3) ng"}, {"measurement": "Testosterone, cell extract", "setting": "5α-reductase", "value": 3.1, "unit": "ng/mL"}, {"measurement": "Testosterone, supernatant", "setting": "5α-reductase", "value": 0, "unit": "ng/mL"}, {"measurement": "DHT, cell extract", "setting": "5α-reductase", "value": 400, "unit": "pg/mL"}, {"measurement": "DHT, supernatant", "setting": "5α-reductase", "value": 450, "unit": "pg/mL"}, {"measurement": "Final DHT, cell extract", "setting": "5α-reductase", "value": 130, "unit": "pg/mL"}, {"measurement": "Final DHT, supernatant", "setting": "5α-reductase", "value": 350, "unit": "pg/mL"}, {"measurement": "Total DHT produced", "setting": "5α-reductase", "value": 3.57, "unit": "ng"}]}, {"compound": "2,4,6-octatrienoic acid salt", "values": [{"measurement": "Prevention of premature apoptosis and catagen in transplanted hair follicles (result in words)", "setting": "[1]", "value": "promising"}]}]}
